For the assay, the target named is human TPH1 (Homo sapiens (Human), UniProt P17752). Put plainly: Biochemical in vitro assay using fluorescence readout (TPH1 inhibition).
Where [1] appears, read: human TPH1, fluorescence readout.
[2] abbreviates: full length human TPH1, 40 μM L-tryptophan, 15° C., 60 minutes, fluorescence at 540 nm, mean if determined several times.

pIC50: −log10 of the molar value.

One may read the pIC50 as −log10 of the IC50, conventionally taken in molar units.

human TPH1, sequence (P17752 whole entry): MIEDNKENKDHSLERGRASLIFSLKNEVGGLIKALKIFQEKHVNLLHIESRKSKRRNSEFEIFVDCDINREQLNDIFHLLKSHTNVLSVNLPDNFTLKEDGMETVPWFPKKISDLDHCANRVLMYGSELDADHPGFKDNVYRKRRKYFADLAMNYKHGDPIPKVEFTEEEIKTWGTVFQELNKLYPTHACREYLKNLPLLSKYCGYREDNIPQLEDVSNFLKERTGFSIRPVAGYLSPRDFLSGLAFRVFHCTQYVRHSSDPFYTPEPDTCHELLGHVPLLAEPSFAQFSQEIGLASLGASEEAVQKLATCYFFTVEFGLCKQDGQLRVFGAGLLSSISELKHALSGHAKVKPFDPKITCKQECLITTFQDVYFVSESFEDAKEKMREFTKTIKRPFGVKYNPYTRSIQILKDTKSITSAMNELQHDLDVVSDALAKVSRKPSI

For `Cc1cc(Cl)ccc1OCC(=O)N1CCc2nc3sccn3c2C1c1cccnc1F` (stereo not shown) [Example 6.2.5, 2-(4-chloro-2-methylphenoxy)-1-(5-(2-fluoropyridin-3-yl)-7,8-dihydrothiazolo[2′,3′:2,3]imidazo[4,5-c]pyridin-6(5H)-yl)ethanone], under setting [1], the pIC50 is 7.59.

As for `Cc1nn2c3c(nc2s1)CCN(C(=O)COc1ccc(N2C(C)CCC2C)nc1Cl)C3c1ccc(Cl)cc1F` (stereo not shown) [Example 1.4.15, 1-(5-(4-chloro-2-fluorophenyl)-2-methyl-7,8-dihydro-[1,3,4]thiadiazolo[2′,3′:2,3]imidazo[4,5-c]pyridin-6(5H)-yl)-2-((2-chloro-6-(2,5-dimethylpyrrolidin-1-yl)pyridin-3-yl)oxy)ethanone], the pIC50 under setting [2] was 8.22.

Turning to `CCOC(=O)c1csc(C2c3c(nc4sc(C)nn34)CCN2C(=O)COc2ccc(C(F)(F)F)nc2Cl)n1` (stereo not shown) [Example 1.27.2, Ethyl 2-(6-(2-((2-chloro-6-(trifluoromethyl)pyridin-3-yl)oxy)acetyl)-2-methyl-5,6,7,8-tetrahydro-[1,3,4]thiadiazolo [2′,3′:2,3]imidazo[4,5-c]pyridin-5-yl)thiazole-4-carboxylate], the pIC50 under setting [1] is 6.30.

`Cc1nn2c3c(nc2s1)CCN(C(=O)COc1ccc(N2CCOCC2)nc1Cl)C3c1cnc(C(=O)N(C)C)s1` (stereo not shown) [Example 1.34.1, 5-(6-(2-((2-chloro-6-morpholinopyridin-3-yl)oxy)acetyl)-2-methyl-5,6,7,8-tetrahydro-[1,3,4]thiadiazolo[2′,3′:2,3]imidazo[4,5-c]pyridin-5-yl)-N,N-dimethylthiazole-2-carboxamide] showed a pIC50 under setting [1] of 8.22.

`COCc1ccc(C2c3c(nc4sc(C)nn34)CCN2C(=O)COc2ccc(C(=O)NC3CC3)nc2Cl)c(F)c1` (stereo not shown) [Example 1.82.2, 6-chloro-N-cyclopropyl-5-(2-(5-(2-fluoro-4-(methoxymethyl)phenyl)-2-methyl-7,8-dihydro-[1,3,4]thiadiazolo[2′,3′:2,3]imidazo[4,5-c]pyridin-6(5H)-yl)-2-oxoethoxy)picolinamide]: under setting [1], the pIC50 is 7.85.

`CCc1ncccc1OCC(=O)N1CCc2nc3sccn3c2C1c1ccc(C)cc1F` (stereo not shown) [Example 6.10.2, 2-((2-ethylpyridin-3-yl)oxy)-1-(5-(2-fluoro-4-methyl-phenyl)-7,8-dihydrothiazolo[2′,3′:2,3]imidazo[4,5-c]-pyridin-6(5H)-yl)ethanone] had a pIC50 under setting [1] of 8.15.

Consider `Cc1cc(Cl)ccc1OCC(=O)N1CCc2nc3sccn3c2C1c1ccc(Cl)cc1F` (stereo not shown) [Example 6.4.3, 1-(5-(4-chloro-2-fluorophenyl)-7,8-dihydrothiazolo-[2′,3′:2,3]imidazo[4,5-c]pyridin-6(5H)-yl)-2-(4-chloro-2-methylphenoxy)ethanone], for which the negative-log IC50 (pIC50) under setting [1] is 8.22.

Under setting [1], `CCc1nc(N2CCCS2(=O)=O)ccc1OCC(=O)N1CCc2nc3sc(C(F)F)nn3c2C1c1ccc(Cl)cc1F` (stereo not shown) [Example 8.1.3, 1-(5-(4-chloro-2-fluorophenyl)-2-(difluoromethyl)-7,8-dihydro-[1,3,4]thiadiazolo[2′,3′:2,3]imidazo[4,5-c]pyridin-6(5H)-yl)-2-((6-(1,1-dioxidoisothiazolidin-2-yl)-2-ethylpyridin-3-yl)oxy)ethanone] gave a pIC50 of 8.15.

Compound `COc1ccc(C2c3c(nc4sc(C)nn34)CCN2C(=O)COc2ccc(NS(C)(=O)=O)nc2Cl)c(F)c1` (stereo not shown) [Example 1.3.4, N-(6-chloro-5-(2-(5-(2-fluoro-4-methoxyphenyl)-2-methyl-7,8-dihydro-[1,3,4]thiadiazolo[2′,3′:2,3]imidazo[4,5-c]pyridin-6(5H)-yl)-2-oxoethoxy)pyridin-2-yl)methanesulfonamide] showed a pIC50 under setting [1] of 8.10.

The compound `CCc1cc(F)ccc1OCC(=O)N1CCc2nc3sccn3c2C1c1ccc(C)cc1F` (stereo not shown) [Example 6.10.4, 2-(2-ethyl-4-fluorophenoxy)-1-(5-(2-fluoro-4-methyl-phenyl)-7,8-dihydrothiazolo[2′,3′:2,3]imidazo[4,5-c]-pyridin-6(5H)-yl)ethanone] had a negative logarithm of the IC50 (pIC50) under setting [1] of 8.22.

The compound `CCc1ncccc1OCC(=O)N1CCc2nc3sccn3c2C1c1ccc(Cl)cc1F` (stereo not shown) [Example 6.4.7, 1-(5-(4-chloro-2-fluorophenyl)-7,8-dihydrothiazolo-[2′,3′:2,3]imidazo[4,5-c]pyridin-6(5H)-yl)-2-((2-ethylpyridin-3-yl)oxy)ethanone] showed a pIC50 under setting [1] of 8.22.

`Cc1nn2c3c(nc2s1)CCN(C(=O)COc1ccc(Cl)cc1C)C3c1nc(-c2ccccc2)no1` (stereo not shown) [Example 1.11.1, 2-(4-chloro-2-methylphenoxy)-1-(2-methyl-5-(3-phenyl-1,2,4-oxadiazol-5-yl)-7,8-dihydro-[1,3,4]thiadiazolo [2′,3′:2,3]imidazo[4,5-c]pyridin-6(5H)-yl)ethanone] showed a pIC50 under setting [1] of 7.46.

The compound `Cc1nn2c3c(nc2s1)CCN(C(=O)COc1ccc(C(=O)NC2CC2)nc1C1CC1)C3c1ccc(Cl)cc1F` (stereo not shown) [Example 1.4.55, 5-(2-(5-(4-chloro-2-fluorophenyl)-2-methyl-7,8-dihydro-[1,3,4]thiadiazolo[2′,3′:2,3]imidazo[4,5-c]pyridin-6(5H)-yl)-2-oxoethoxy)-N,6-dicyclopropylpicolinamide] had a pIC50 under setting [1] of 8.05.

In the case of `Cc1nn2c3c(nc2s1)CCN(C(=O)COc1ccc(N2CCOCC2)nc1Cl)C3c1nc(N)sc1F` (stereo not shown) [Example 1.52.1, 1-(5-(2-Amino-5-fluorothiazol-4-yl)-2-methyl-7,8-dihydro-[1,3,4]thiadiazolo[2′,3′:2,3]-imidazo[4,5-c]pyridin-6(5H)-yl)-2-((2-chloro-6-morpholinopyridin-3-yl)oxy)ethanone], the pIC50 under setting [2] was 8.22.

Compound `CCc1c(OCC(=O)N2CCc3nc4sc(C)nn4c3C2c2ccc(C3CC3)cc2F)ccc(C)[n+]1[O-]` (stereo not shown) [Example 1.6.20, 3-(2-(5-(4-cyclopropyl-2-fluorophenyl)-2-methyl-7,8-dihydro-[1,3,4]thiadiazolo[2′,3′:2,3]imidazo[4,5-c]pyridin-6(5H)-yl)-2-oxoethoxy)-2-ethyl-6-methylpyridine-1-oxide] showed a pIC50 under setting [1] of 7.03.

`Cc1nn2c3c(nc2s1)CCN(C(=O)COc1ccc(N2CC(F)(F)C2)nc1Cl)C3c1sc(C(=O)N(C)C)cc1F` (stereo not shown) [Example 1.24.6, 5-(6-(2-((2-chloro-6-(3,3-difluoroazetidin-1-yl)pyridin-3-yl)oxy)acetyl)-2-methyl-5,6,7,8-tetrahydro-[1,3,4]thiadiazolo [2′,3′:2,3]imidazo[4,5-c]pyridin-5-yl)-4-fluoro-N,N-dimethylthiophene-2-carboxamide] showed a pIC50 under setting [1] of 8.30.

Turning to `Cc1nn2c3c(nc2s1)CCN(C(=O)COc1ccc(NS(C)(=O)=O)nc1Cl)C3c1cncs1` (stereo not shown) [Example 1.39.1, N-(6-chloro-5-(2-(2-methyl-5-(thiazol-5-yl)-7,8-dihydro-[1,3,4]thiadiazolo[2′,3′:2,3]imidazo[4,5-c]pyridin-6(5H)-yl)-2-oxoethoxy)pyridin-2-yl)methanesulfonamide], the pIC50 under setting [1] is 7.00.

`Cc1cnc(C2c3c(nc4sc(C)nn34)CCN2C(=O)COc2ccc(-c3ncco3)nc2Cl)c(F)c1` (stereo not shown) [Example 1.31.13, 2-((2-chloro-6-(oxazol-2-yl)pyridin-3-yl)oxy)-1-(5-(3-fluoro-5-methylpyridin-2-yl)-2-methyl-7,8-dihydro-[1,3,4]thiadiazolo[2′,3′:2,3]imidazo[4,5-c]pyridin-6(5H)-yl)ethanone] had a pIC50 under setting [1] of 7.80.

`Cc1nc(C2c3c(nc4sc(C)nn34)CCN2C(=O)COc2ccc(N3CCOCC3)nc2Cl)c(C)o1` (stereo not shown) [Example 1.67.1, 2-((2-chloro-6-morpholinopyridin-3-yl)oxy)-1-(5-(2,5-dimethyloxazol-4-yl)-2-methyl-7,8-dihydro-[1,3,4]thiadiazolo [2′,3′:2,3]imidazo[4,5-c]pyridin-6(5H)-yl)ethanone] gave a pIC50 under setting [1] of 7.60.

`Cc1nn2c3c(nc2s1)CCN(C(=O)COc1cccnc1Cl)C3c1cnc(N2CCOCC2)s1` (stereo not shown) [Example 1.7.3, 2-((2-chloropyridin-3-yl)oxy)-1-(2-methyl-5-(2-morpholinothiazol-5-yl)-7,8-dihydro-[1,3,4]thiadiazolo [2′,3′:2,3]imidazo[4,5-c]pyridin-6(5H)-yl)ethanone]: the pIC50 under setting [1] is 6.47.

In turn, `CCc1nc(N2CCCS2(=O)=O)ccc1OCC(=O)N1CCc2nc3sc(C(F)(F)F)nn3c2C1c1sc(C)nc1C` (stereo not shown) [Example 5.4.1, 1-(5-(2,4-dimethylthiazol-5-yl)-2-(trifluoromethyl)-7,8-dihydro-[1,3,4]thiadiazolo[2′,3′:2,3]imidazo[4,5-c]pyridin-6(5H)-yl)-2-((6-(1,1-dioxidoisothiazolidin-2-yl)-2-ethylpyridin-3-yl)oxy)ethanone] had a pIC50 under setting [1] of 7.60.

For `Cn1nc(OCC(=O)N2CCc3nc4sccn4c3C2c2nc3ccccc3s2)c(Cl)c1C(F)(F)F` (stereo not shown) [Example 6.12.7, 1-(5-(benzo[d]thiazol-2-yl)-7,8-dihydrothiazolo-[2′,3′:2,3]imidazo[4,5-c]pyridin-6(5H)-yl)-2-((4-chloro-1-methyl-5-(trifluoromethyl)-1H-pyrazol-3-yl)-oxy)ethanone], the pIC50 under setting [1] was 7.21.

Take `Cc1nn2c3c(nc2s1)CCN(C(=O)COc1ccc(S(C)(=O)=O)nc1Cl)C3c1ccc(Cl)cc1F` (stereo not shown) [Example 1.4.59, 1-(5-(4-chloro-2-fluorophenyl)-2-methyl-7,8-dihydro-[1,3,4]thiadiazolo[2′,3′:2,3]imidazo[4,5-c]pyridin-6(5H)-yl)-2-((2-chloro-6-(methylsulfonyl)pyridin-3-yl)oxy)ethan-1-one]: the pIC50 under setting [1] was 7.57.

Under setting [2], `CNC(=O)c1csc(C2c3c(nc4sc(C)nn34)CCN2C(=O)COc2ccc(C(F)(F)F)cc2Cl)n1` (stereo not shown) [Example 1.44.1, 2-(6-(2-(2-Chloro-4-(trifluoromethyl)phenoxy)acetyl)-2-methyl-5,6,7,8-tetrahydro-[1,3,4]thiadiazolo[2′,3′:2,3]imidazo[4,5-c]pyridin-5-yl)-N-methylthiazole-4-carboxamide] had a negative logarithm of the IC50 (pIC50) of 6.51.

The compound `O=C(COc1ccccc1C(F)(F)F)N1CCc2nc3sccn3c2C1c1cccnc1F` (stereo not shown) [Example 6.2.2, 1-(5-(2-fluoropyridin-3-yl)-7,8-dihydrothiazolo[2′,3′:2,3]-imidazo[4,5-c]pyridin-6(5H)-yl)-2-(2-(trifluoromethyl)-phenoxy)ethanone] gave a pIC50 under setting [1] of 7.09.
